In one data set the test system is HepG2 2.2.15. Description: Cell Titer 96 (Toxicity) in the secondary assay. To be noted: HepG2 2.2.15 cells, unit from conc. ranges in the 1st table, read-out: CC50 - compound concentration that reduces cell viability by 50%. The class given is cell-based.
Data set [1] relates to Hepatitis B virus. Kind of data set: Secondary anti-Hepatitis B virus assay, quantitative polymerase chain reaction (intracellular DNA). The class given is cell-based, Hepatitis B virus (Hepatitis B-adr). To be noted: for EC50 / EC90: Hepatitis B-adr, intracellular DNA by qPCR, vehicle DMSO, unit from conc. ranges in the 1st table; for EC50: read-out: EC50 - compound concentration that reduces viral replication by 50%; for EC90: read-out: EC90 - compound concentration that reduces viral replication by 90%; for Sl90 - CC50/EC90 / Sl50 - CC50/EC50: selectivity index. The method, then:
(§1) Hepatitis B antiviral assays (Korba & Gerin, 1992, Antivir. Res. 19:55) are conducted using confluent cultures of 2.2.15 cells (genotype ayw; parental cell HepG2) maintained on 96-well flat-bottomed tissue culture plates (confluence in this culture system is required for active, high levels of Hepatitis B replication equivalent to that observed in chronically-infected individuals (Sells, et al., 1988, J. Virol. 62:2836; Korba and Gerin, 1992, Antivir. Res. 19:55). Cultures are treated for 7 days. Typically, 4 doses (10-fold or 3-fold steps), in triplicate are used. Hepatitis B DNA levels in the culture medium (representing Hepatitis B virion production) are assessed by quantitative blot hybridization 24 hrs. after the last treatment. Cytotoxicity is assessed by uptake of neutral red dye 24 hr. following the last treatment. Lamivudine (LMV) is used as the standard assay control, but other control compounds are also available.
EC50, EC90 and CC50 values are calculated by linear regression analysis (MS EXCEL®, QuattroPro®) using data combined from all treated cultures (Korba & Gerin, 1992, Antivir. Res. 19:55; Okuse, et al., 2005, Antivir. Res. 65:23). Standard deviations for EC50 and EC90 values are calculated from the standard errors generated by the regression analyses. EC50 and EC90 are drug concentrations at which a 2-fold, or a 10-fold depression of Hepatitis B DNA (relative to the average levels in untreated cultures), respectively, is observed. CC50 is the drug concentration at which a 2-fold lower level of neutral red dye uptake (relative to the average levels in untreated cultures) is observed. The Selectivity index (S.I.) is calculated as CC50/EC90 since at least a 3-fold depression of Hepatitis B DNA levels is typically required to achieve statistical significance in this assay system (Korba & Gerin, 1992, Antivir. Res. 19:55).
Confluent cultures of HepG2 2.2.15 cells maintained on 48-well flat-bottomed tissue culture plates are treated as described for the primary assay. Hepatitis B virion DNA levels in the culture medium and cytotoxicity are assessed as described for the primary assay. […] Res. 19:55). EC50, EC90, and S.I. values are calculated for both virion DNA and intracellular Hepatitis B DNA replication intermediates.
(In general: In qPCR the cycle at which signal appears reflects the starting amount.)

The nature of data set [2]: Cell Titer 96 (Toxicity) in the secondary assay. The class given is cell-based. To be noted: human, HepG2 2.2.15 cells (confluent cultures), unit from conc. ranges in the 1st table, read-out: CC50 - compound concentration that reduces cell viability by 50%.
Data set [3] concerns Hepatitis B virus. Kind of data set: Primary anti-Hepatitis B virus assay (primary screen). The class given is cell-based. Conditions: data confirmed in the secondary assay. Here is the method: as §1
EC50, EC90 and CC50 values are calculated by linear regression analysis (MS EXCEL®, QuattroPro®) using data combined from all treated cultures (Korba & Gerin, 1992, Antivir. Res. 19:55; Okuse, et al., 2005, Antivir. Res. 65:23). Standard deviations for EC50 and EC90 values are calculated from the standard errors generated by the regression analyses. […]

Where [4] appears, read: HepG2 2.2.15 cells, listed as 3TC (1).
The mark [5] stands for this setting: HepG2 2.2.15 cells, listed as 3TC (2).
The mark [6] stands for this setting: HepG2 2.2.15 cells, listed as 3TC (3).
The mark [7] stands for this setting: Hepatitis B virus, HepG2 2.2.15, HepG2 2.2.15 cells.

This note sets out measurements from patent US20160303122A1, “TREATMENT OF HEPATITIS B VIRAL” (Southern Research Institute, priority 2015, published 2016).

Structures are written as SMILES. Like-named read-outs stand apart in the source and are kept apart here.

For `Nc1ccn([C@@H]2CS[C@H](CO)O2)c(=O)n1` [Compound 3TC, 2′,3′-dideoxy-3′-thiacytidine], the results for the CC50 in the data set on HepG2 2.2.15 (listed as 3TC (1)), in the data set with HepG2 2.2.15 (listed as 3TC (2)) and in the data set with HepG2 2.2.15 (listed as 3TC (3)) were > 500 nM, > 1000 nM and > 2000 nM, respectively. Besides, the figures for the EC50 in the data set with Hepatitis B virus [1] (setting [4]), in the data set on Hepatitis B virus [1] (setting [6]) and with Hepatitis B virus [1] (setting [7]) were 40 nM, 50 nM and 60 nM, respectively. The EC90 with Hepatitis B virus [1] (setting [4]) is > 500 nM; in the data set with Hepatitis B virus [1] (setting [5]), > 1000 nM; with Hepatitis B virus [1] (setting [6]) it was > 2000 nM. For the same compound, in the data set with Hepatitis B virus [1] (HepG2 2.2.15 cells), the “Sl90 - CC50/EC90” value came out at 1. The “Sl50 - CC50/EC50” value is >12 in the data set with Hepatitis B virus [1] (setting [4]), >15 with Hepatitis B virus [1] (setting [5]) and >43 in the data set on Hepatitis B virus [1] (setting [6]).
With `CCC[C@H](Nc1nc(-c2ccc(NC(=O)NCC)c(OC)c2)ncc1C)c1cccnc1` (stereo in doubt) [Compound 1A, 1-ethyl-3-(2-methoxy-4-(5-methyl-4-((1-(pyridine-3-yl)butyl)amino)pyrimidin-2-yl)phenyl)urea], the CC50 at 7 days in data set [2] turned out to be 25400 nM. In the data set on Hepatitis B virus [1] (HepG2 2.2.15 cells), the “Sl50 - CC50/EC50” value was >80 and the “Sl90 - CC50/EC90” value was found to be 1. Further, in the data set on Hepatitis B virus [1] (setting [7]), the EC50 was < 320 nM and the EC90 was found to be 710 nM. The “activity in the primary screen” value in the data set on Hepatitis B virus [3] is given as “active”.
